How the values were obtained:
Format in all cases: in vivo
[1] = test system: barnyardgrass (Echinochloa crus-galli); assay: Test A preemergence soil spray, visual injury rating 0-100; settings: 10 days, 0 = no effect, 100 = complete control
Summary of the method: (§1)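 Plants were grown in a loam soil-sand blend and treated with test chemical in a non-phytotoxic solvent mixture containing surfactant, either sprayed on soil preemergence or applied postemergence to 2-10 cm plants. After 10 days in a greenhouse, injury was scored visually against untreated controls, 0 meaning no effect and 100 complete control.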

[2] = test system: blackgrass (Alopecurus myosuroides); assay: as above; settings: 10 days, 0 = no effect, 100 = complete control
Summary of the method: as §1

corn (Zea mays) [3] = assay: as above; settings: 10 days, 0 = no effect, 100 = complete control
Summary of the method: as §1

kochia (Bassia scoparia) [4] = assay: as above; settings: 10 days, 0 = no effect, 100 = complete control
Summary of the method: as §1

[5] = test system: oat, wild (wild oat, Avena fatua); assay: as above; settings: 10 days, 0 = no effect, 100 = complete control
Summary of the method: as §1

[6] = test system: palmer (palmer amaranth, palmer pigweed, Amaranthus palmeri); assay: as above; settings: 10 days, 0 = no effect, 100 = complete control
Summary of the method: as §1

[7] = test system: ragweed (common ragweed, Ambrosia artemisiifolia); assay: as above; settings: 10 days, 0 = no effect, 100 = complete control
Summary of the method: as §1

[8] = test system: ryegrass, Italian (italian ryegrass, Lolium multiflorum); assay: as above; settings: 10 days, 0 = no effect, 100 = complete control
Summary of the method: as §1

soybean (Glycine max) [9] = assay: as above; settings: 10 days, 0 = no effect, 100 = complete control
Summary of the method: as §1

[10] = test system: wheat (Triticum aestivum); assay: as above; settings: 10 days, 0 = no effect, 100 = complete control
Summary of the method: as §1

[11] = test system: barnyardgrass (Echinochloa crus-galli); assay: Test A postemergence application, visual injury rating 0-100; settings: 10 days
Summary of the method: as §1

[12] = test system: blackgrass (Alopecurus myosuroides); assay: as above; settings: 10 days
Summary of the method: as §1

corn (Zea mays) [13] = assay: as above; settings: 10 days
Summary of the method: as §1

[14] = test system: galium (catchweed bedstraw, Galium aparine); assay: as above; settings: 10 days
Summary of the method: as §1

[15] = test system: horseweed (Erigeron canadensis); assay: as above; settings: 10 days
Summary of the method: as §1

kochia (Bassia scoparia) [16] = assay: as above; settings: 10 days
Summary of the method: as §1

[17] = test system: oat, wild (wild oat, Avena fatua); assay: as above; settings: 10 days
Summary of the method: as §1

[18] = test system: palmer (palmer amaranth, palmer pigweed, Amaranthus palmeri); assay: as above; settings: 10 days
Summary of the method: as §1

[19] = test system: ragweed (common ragweed, Ambrosia artemisiifolia); assay: as above; settings: 10 days
Summary of the method: as §1

[20] = test system: ryegrass, Italian (italian ryegrass, Lolium multiflorum); assay: as above; settings: 10 days
Summary of the method: as §1

soybean (Glycine max) [21] = assay: as above; settings: 10 days
Summary of the method: as §1

[22] = test system: wheat (Triticum aestivum); assay: as above; settings: 10 days
Summary of the method: as §1

[23] = test system: barnyardgrass (Echinochloa crusgalli); assay: Test B flooded paddy test, visual plant response rating 0-100; settings: 250 g ai/ha, Flood, applied to paddy water, evaluated after 13 days
Summary of the method: (§2)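 Each species was raised to two leaves before flooding to a 3 cm depth and dosing the water with compound. Injury was assessed by eye after 13 days under greenhouse conditions.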

[24] = test system: ducksalad (Heteranthera limosa); assay: as above; settings: 250 g ai/ha, Flood, applied to paddy water, evaluated after 13 days
Summary of the method: as §2

rice (Oryza sativa) = assay: as above; settings: 250 g ai/ha, Flood, applied to paddy water, evaluated after 13 days
Summary of the method: as §2

[25] = test system: sedge, umbrella (small-flower umbrella sedge, Cyperus difformis); assay: as above; settings: 250 g ai/ha, Flood, applied to paddy water, evaluated after 13 days
Summary of the method: as §2

[26] = 31 g ai/ha, postemergence, 0 = no effect, 100 = complete control
[27] = Postemergence, 125 g ai/ha, 0 is no effect, 100 is complete control

COC(=O)C1=CCC(NC(=O)C2(C)CN(c3cc(Cl)cc(Cl)c3)C(=O)O2)C1 (stereo not drawn) [Compound 58]
Barnyardgrass plant response rating (0-100) ([1]; 31 g ai/ha): 80
Barnyardgrass plant response rating (0 to 100 scale) ([1]; 125 g ai/ha): 90
Blackgrass plant response rating (0-100) ([2]; 31 g ai/ha): 10
Blackgrass plant response rating (0 to 100 scale) ([2]; 125 g ai/ha): 30
Corn plant response rating (0-100) (corn (Zea mays) [3]; 31 g ai/ha): 10
Corn plant response rating (0 to 100 scale) (corn (Zea mays) [3]; 125 g ai/ha): 60
Kochia plant response rating (0-100) (kochia (Bassia scoparia) [4]; 31 g ai/ha): 10
Kochia plant response rating (0 to 100 scale) (kochia (Bassia scoparia) [4]; 125 g ai/ha): 70
Oat, Wild plant response rating (0-100) ([5]; 31 g ai/ha): 10
Oat, Wild plant response rating (0 to 100 scale) ([5]; 125 g ai/ha): 30
Amaranth, Palmer plant response rating (0-100) ([6]; 31 g ai/ha): 80
Amaranth, Palmer plant response rating (0 to 100 scale) ([6]; 125 g ai/ha): 100
Ragweed plant response rating (0-100) ([7]; 31 g ai/ha): 0
Ragweed plant response rating (0 to 100 scale) ([7]; 125 g ai/ha): 30
Ryegrass, Italian plant response rating (0-100) ([8]; 31 g ai/ha): 60
Ryegrass, Italian plant response rating (0 to 100 scale) ([8]; 125 g ai/ha): 80
Soybean plant response rating (0-100) (soybean (Glycine max) [9]; 31 g ai/ha): 20
Soybean plant response rating (0 to 100 scale) (soybean (Glycine max) [9]; 125 g ai/ha): 50
Wheat plant response rating (0-100) ([10]; 31 g ai/ha): 20
Wheat plant response rating (0 to 100 scale) ([10]; 125 g ai/ha): 90
Barnyardgrass plant response rating (0-100) [11, 26]: 90
Barnyardgrass plant response rating (0 to 100 scale) [11, 27]: 90
Blackgrass plant response rating (0-100) [12, 26]: 90
Blackgrass plant response rating (0 to 100 scale) [12, 27]: 100
Corn plant response rating (0-100) (corn (Zea mays) [13]; [26]): 100
Corn plant response rating (0 to 100 scale) (corn (Zea mays) [13]; [27]): 100
Galium plant response rating (0-100) [14, 26]: 90
Galium plant response rating (0 to 100 scale) [14, 27]: 90
Horseweed plant response rating (0-100) [15, 26]: 80
Horseweed plant response rating (0 to 100 scale) [15, 27]: 90
Kochia plant response rating (0-100) (kochia (Bassia scoparia) [16]; [26]): 80
Kochia plant response rating (0 to 100 scale) (kochia (Bassia scoparia) [16]; [27]): 90
Oat, Wild plant response rating (0-100) [17, 26]: 30
Oat, Wild plant response rating (0 to 100 scale) [17, 27]: 70
Amaranth, Palmer plant response rating (0-100) [18, 26]: 90
Amaranth, Palmer / Pigweed, Palmer plant response rating (0 to 100 scale) [18, 27]: 100
Ragweed plant response rating (0-100) [19, 26]: 30
Ragweed plant response rating (0 to 100 scale) [19, 27]: 70
Ryegrass, Italian plant response rating (0-100) [20, 26]: 90
Ryegrass, Italian plant response rating (0 to 100 scale) [20, 27]: 90
Soybean plant response rating (0-100) (soybean (Glycine max) [21]; [26]): 90
Soybean plant response rating (0 to 100 scale) (soybean (Glycine max) [21]; [27]): 90
Wheat plant response rating (0-100) [22, 26]: 60
Wheat plant response rating (0 to 100 scale) [22, 27]: 90
Plant response rating, Barnyardgrass (0 to 100 scale, 0 is no effect and 100 is complete control) [23]: 60
Plant response rating, Ducksalad (0 to 100 scale, 0 is no effect and 100 is complete control) [24]: 95
Plant response rating, Rice (0 to 100 scale, 0 is no effect and 100 is complete control) (rice (Oryza sativa)): 70
Plant response rating, Sedge, Umbrella (0 to 100 scale, 0 is no effect and 100 is complete control) [25]: 98
